According to paper PMC5652740, “Inhibition of HIV-1 infection in humanized mice and metabolic stability of protein phosphatase-1-targeting small molecule 1E7-03” (Oncotarget, 2017):

Tests used:
[1] = 1E7-03 degradation in ferret plasma; assay type: in vitro ADME; settings: 37°C
Description: (§1) 1E7-03 dissolved in DMSO (10 mM stock solution) was mixed with mouse plasma (Sigma-Aldrich), guinea pig plasma (Sigma-Aldrich), ferret plasma (BioreclamationIVT), monkey plasma (courtesy of Binhua Ling, PhD, Tulane University) and human plasma (collected from heathy volunteer by the Center for Sickle Cell Disease at Howard University) to the final concentration of 10 μM and incubated at 37°C. Aliquots were collected at different time points for up to 24 hrs. The resulting sample (60 μl) was mixed with 240 μl of cold acetone, vortexed for 2 min, kept at –20°C for 30 min, and then the precipitated protein was removed by centrifugation at 13,000 × g for 5 min. The supernatant was transferred to a clean test tube and evaporated to dryness using a SpeedVac concentrator. The residue reconstituted in 60 μl of acetonitrile for LC/FT-MS analysis. All experiments were run parallel in triplicates.

[2] = 1E7-03 degradation in monkey plasma; assay type: in vitro ADME; settings: 37°C
Description: as §1

[3] = 1E7-03 degradation in human plasma; assay type: in vitro ADME; settings: 37°C
Description: as §1

[4] = Stability of 1E7-03 in cell culture media and PBS; assay type: physicochemical
Description: CEM T cells were seeded in 24-well plates (200,000 cells/well). On the next day cells were treated with 10 μM 1E7-03. Media (100 μl) was collected at different time points during 48 hrs and total protein was precipitated by 400 μl of cold acetone and centrifuged at 13,000 × g for 5 min. The supernatant was collected and evaporated to dryness using a SpeedVac concentrator. The dry pellet was reconstituted in 100 μl of acetonitrile for LC/FT-MS analysis. In addition, 1E7-03 (10 μM) was incubated at 37°C in serum-free media and complete media without cell treatment. Media of 100 μl was collected after 24 hrs of incubation. The stabilities of 1E7-03 (10 μM) at phosphate buffered saline (PBS) and PBS with the addition of 10% bovine serum albumin were also investigated at 37°C incubation. Samples (100 μl) were collected at different time points up to 24 hrs. All samples were prepared by the same above-mentioned procedure for LC/FT-MS analysis.

[5] = test system: PP1 regulatory subunit Sds22; assay: Label free quantitative proteomics of HIV-1 infected CEM T cells; assay type: cell-based; settings: 10 μM, SIEVE quantification
Description: CEM T cells were infected with VSVG-pseudotyped pNL4-3.Luc.R-E-virus (HIV-1-LUC-G) and cultured in 100 mm culture plates (1.25 × 10^6 cells/ml) containing 10 ml of supplemented RPMI media at 37°C and 5% CO2. The cells were treated with 10 μM of 1E7-03 or vehicle (DMSO) and incubated overnight. Cells were collected and washed three times with PBS. To obtain cell lysates, the cells were suspended in 1 ml cold whole cell lysis buffer (50 mM Tris-HCl, pH 7.5, 0.5 M NaCl, 1% NP-40, 0.1% SDS) with protease and phosphatase inhibitors (P044-1ML, Sigma Aldrich). The cytosolic protein fraction was isolated by centrifugation at 13,000xg for 30 min at 4 °C to remove cellular debris. […]
Tryptic peptides were purified by Pierce™ Graphite Spin Columns following manufacturer's instructions, resuspended in water with 0.1% formic acid (v/v) and analyzed by an LTQ Orbitrap XL mass spectrometer (Thermo Fisher Scientific) coupled to a Prominence Nano LC (Shimadzu) using the Xcalibur version 2.7.0 (Thermo Scientific). […]
LC-MS/MS raw data were searched by Proteome Discoverer 1.4 using Sequest search engine (Thermo Fisher Scientific), against the Uniprot Human database (6/10/2016, 135431 sequences) at a false discovery cut off ≤1%. […] The label-free quantification of peptides eluting between 10 and 80 min was performed with SIEVE 2.1 software (Thermo Scientific). […]

[6] = test system: CEM T cells; assay: Cytotoxicity with calcein-AM; assay type: cell-based; settings: in words
Description: To assess cytotoxicity with calcein, media was removed and the cells washed with PBS in order to remove serum esterase activity that may cause an increase in fluorescence through the hydrolysis of calcein-AM. Cells were then supplemented with 0.2 μM calcein-AM (Molecular Probes, Invitrogen) for 10 min at 37°C. Fluorescence was measured using the luminescence spectrometer described above implementing 495 nm excitation and 515 nm emission filters.

Compound	remaining at 24 h, 10 µM [1] [%]	remaining at 24 h, 10 µM [2] [%]	remaining at 24 h, 10 µM [3] [%]	Peak Area (%), Complete media ([4]; 10 μM 1E7-03 in media with 10% FBS, 37°C, 24 hrs, 1E7-03 remaining and DPs formed) [%]	Peak Area (%), FBS free media ([4]; 10 μM 1E7-03 in serum free media, 37°C, 24 hrs, 1E7-03 remaining and DPs formed) [%]	stability in complete media ([4]; 10 μM, 37°C, 48 hrs, in words)	remaining at 4 h, 10 µM ([4]; PBS with 10% bovine serum albumin, 4 hrs, read-out: % remaining intact in PBS with 10% BSA) [%]	remaining at 24 h, 10 µM ([4]; PBS with 10% bovine serum albumin, 24 hrs, read-out: % remaining in PBS with 10% BSA) [%]	% of compound degraded in PBS ([4]; PBS, 37°C, 4 hrs)	remaining at 48 h, 10 µM ([4]; human, culture media of CEM T cells, 48 hrs of incubation, read-out: % remained intact in cell culture media) [%]	Sds22 Ratio 1E7-03/Control [5]	α-tubulin Ratio 1E7-03/Control [5]	toxicity in CEM T cells compared to 1E7-03 [6]
CCNC(=O)NC(=O)C(C)OC(=O)c1c2c(nc3ccccc13)/C(=C/c1ccc(OC)c(OC)c1)CC2 (stereo not shown) [1E7-03]	> 50	> 50	> 50	98.6	7	remained stable and did not undergo degradation	75	> 50	over 80%	> 90	0.804	0.936	–
COc1ccc(/C=C2\CCCc3c2nc2ccccc2c3C(=O)OC(C)C(=O)OC(C)(C)C)cc1OC (stereo not shown) [DP1-07]	–	–	–	–	–	–	–	–	–	–	–	–	reduced toxicity
